1 molecule from patent publication US20030139352A1, “Inhibitors of ABC drug transporters in cancer cells” (priority 2001, published 2003) can be followed below.

Each structure is given as a SMILES string. Read-outs that look alike come from different tables or passages of the source.

The target of series [1] is human PGP (Homo sapiens, UniProt P08183). Particulars: 15B-J vs CLA monolayers.
For series [2], the target named is human PGP membranes (PGP-associated ATPase) (Homo sapiens, UniProt P08183). Particulars: for ATPase Activity, basal activity subtracted: human, 20 min. The method, then:
The DMSO concentration (1.0%) was constant for all conditions within the experiment.
The test substances were incubated in the PGP membranes and supplemented with MgATP, with and without sodium orthovanadate present. Orthovanadate inhibits PGP by trapping MgADP in the nucleotide binding site. Thus, the ATPase activity measured in the presence of orthovanadate represents non-PGP ATPase activity and was subtracted from the activity generated without orthovanadate to yield ATPase activity.
(§1) ATPase assays were conducted in 96-well microtiter plates. A 0.06 mL reaction mixture containing 40 μg PGP membranes, test substance, and 4 mM MgATP, in buffer containing 50 mM Tris-MES, 2 mM EGTA, 50 mM KCl, 2 mM dithiothreitol, and 5 mM sodium azide, plus organic solvent was incubated at 37° C. for 20 minutes. […] Identical reaction mixtures containing 100 μM sodium orthovanadate were assayed in parallel. The reactions were stopped by the addition of 30 μl of 10% SDS+Antifoam A. The incubations were followed with addition of 200 μl of 35 mM Ammonium Molybdate in 15 mM Zinc Acetate: 10% Ascorbic Acid (1:4) and incubated for an additional 20 minutes at 37° C. Additionally, 0.06 mL aliquots of potassium phosphate standards prepared in the buffer described above, were incubated in the plates containing the test and control substances, with SDS and detection reagent added. The liberation of inorganic phosphate was detected by its absorbance at 800 nm and quantitated by comparing the absorbance to a phosphate standard curve. The concentration dependence of the PGP was analyzed for evidence of saturation of PGP-associated ATPase activity, and apparent kinetic parameters were calculated by non-linear regression.
as §1, with “plates.” for “plates. A 0.06 mL reaction mixture containing 40 μg PGP membranes, test substance, and 4 mM MgATP, in buffer containing 50 mM Tris-MES, 2 mM EGTA, 50 mM KCl, 2 mM dithiothreitol, and 5 mM sodium azide, plus organic solvent was incubated at 37° C. for 20 minutes.”, “activity.” for “activity, and apparent kinetic parameters were calculated by non-linear regression.”
as §1, with “plates.” for “plates. A 0.06 mL reaction mixture containing 40 μg PGP membranes, test substance, and 4 mM MgATP, in buffer containing 50 mM Tris-MES, 2 mM EGTA, 50 mM KCl, 2 mM dithiothreitol, and 5 mM sodium azide, plus organic solvent was incubated at 37° C. for 20 minutes.”

Sequence of human PGP membranes (PGP-associated ATPase) (P08183 whole entry): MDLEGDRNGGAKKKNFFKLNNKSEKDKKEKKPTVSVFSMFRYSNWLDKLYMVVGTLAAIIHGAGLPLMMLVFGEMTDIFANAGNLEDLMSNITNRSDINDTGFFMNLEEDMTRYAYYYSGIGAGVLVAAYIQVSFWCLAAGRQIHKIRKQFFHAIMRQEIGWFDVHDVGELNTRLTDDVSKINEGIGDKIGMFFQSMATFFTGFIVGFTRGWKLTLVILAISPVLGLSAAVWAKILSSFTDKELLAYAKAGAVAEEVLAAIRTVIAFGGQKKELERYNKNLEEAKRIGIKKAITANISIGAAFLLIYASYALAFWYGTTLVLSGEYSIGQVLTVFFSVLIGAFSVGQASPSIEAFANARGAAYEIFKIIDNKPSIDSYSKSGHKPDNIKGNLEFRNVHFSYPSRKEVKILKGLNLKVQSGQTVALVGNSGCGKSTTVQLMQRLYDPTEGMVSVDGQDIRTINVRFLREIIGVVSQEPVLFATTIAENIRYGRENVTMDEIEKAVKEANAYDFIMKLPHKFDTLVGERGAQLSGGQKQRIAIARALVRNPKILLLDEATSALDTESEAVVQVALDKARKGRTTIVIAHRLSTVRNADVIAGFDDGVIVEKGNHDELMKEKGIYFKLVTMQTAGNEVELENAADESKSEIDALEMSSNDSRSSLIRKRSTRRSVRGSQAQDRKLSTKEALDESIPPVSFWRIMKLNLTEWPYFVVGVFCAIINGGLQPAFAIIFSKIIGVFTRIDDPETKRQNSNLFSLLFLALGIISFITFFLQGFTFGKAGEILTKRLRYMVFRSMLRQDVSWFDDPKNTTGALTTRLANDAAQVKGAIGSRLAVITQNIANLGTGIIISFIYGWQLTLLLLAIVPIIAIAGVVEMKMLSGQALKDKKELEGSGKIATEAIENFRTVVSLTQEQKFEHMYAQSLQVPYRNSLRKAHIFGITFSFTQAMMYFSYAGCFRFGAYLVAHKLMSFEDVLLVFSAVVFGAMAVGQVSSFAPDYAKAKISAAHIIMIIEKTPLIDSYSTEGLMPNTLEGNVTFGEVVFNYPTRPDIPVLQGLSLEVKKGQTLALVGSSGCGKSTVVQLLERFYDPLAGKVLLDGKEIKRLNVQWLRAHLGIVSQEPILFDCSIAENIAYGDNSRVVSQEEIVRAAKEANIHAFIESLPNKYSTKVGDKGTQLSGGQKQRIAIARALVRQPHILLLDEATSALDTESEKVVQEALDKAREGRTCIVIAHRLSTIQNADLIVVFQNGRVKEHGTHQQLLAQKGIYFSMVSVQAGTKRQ
Sequence of human PGP (P08183 whole entry): as above

With `CC(=O)O[C@H]1C(=O)[C@@]2(C)[C@H]([C@H](OC(=O)c3ccccc3)[C@]3(O)C[C@H](OC(=O)[C@H](O)[C@@H](NC(=O)c4ccccc4)c4ccccc4)C(C)=C1C3(C)C)[C@]1(OC(C)=O)CO[C@@H]1C[C@@H]2O` [Taxol, taxol], the “transport by human PGP (in words)” value in series [1] is on record as “significantly transported by human PGP”. In addition, the “effect on PGP-associated ATPase activity (in words)” value in series [2] is “stimulates PGP-associated ATPase activity in a dose dependent manner”. Moreover, the “ATPase Activity, basal activity subtracted” value in series [2] (0.007 μM) is -0.3 nmol/mg/min; in series [2] (0.01 μM) it was -0.4 nmol/mg/min; in series [2] (0.03 μM), -0.9 nmol/mg/min; in series [2] (0.05 μM), -0.9 nmol/mg/min; in series [2] (0.1 μM), -1.6 nmol/mg/min; in series [2] (0.42 μM), 2.5 nmol/mg/min. In addition, the “ATPase Activity, basal activity subtracted” value came out at 11.1 nmol/mg/min in series [2] (1.67 μM), 12.8 nmol/mg/min in series [2] (3.33 μM) and 14.4 nmol/mg/min in series [2] (6.67 μM).
